In patent US20090239877A1, “NOVEL 1,2,4-TRIAZOLE DERIVATIVES AND PROCESS OF MANUFACTURING THEREOF” (AETERNA ZENTARIS GmbH, priority 2008, published 2009):

Molecular target: human GHS-R 1a (Homo sapiens, UniProt Q92847)
Experiment: GHS-R 1a receptor-ligand binding assay (membrane preparations from transfected LLC PK-1 cells)
Design: expressed in transfected cells
Details: displacement of 125I-His9-ghrelin; plasma membranes of LLC PK-1 cells transiently transfected with human GHS-R 1a; mean of at least two independent experiments in triplicates
Description: II) GHS-R 1a Receptor-Ligand Binding Assay (Membrane Preparations from Transfected LLC PK-1 Cells)
The GHS-R 1a receptor binding/affinity studies were performed according to Guerlavais et al. (J. Med. Chem. 2003, 46: 1191-1203).
Isolated plasma membranes from LLC PK-1 cells, a renal epithelial cell line originally derived from porcine kidneys (ECACC No. 86121112) (10 μg of protein), that were transiently transfected with human GHS-R 1a cDNA (Guerlavais et al., J. Med. Chem. 2003, 46: 1191-1203), were incubated in homogenization buffer HB [50 mM Tris (pH 7.3), 5 mM MgCl2, 2.5 mM EDTA, and 30 μg/mL bacitracin (Sigma)] for 60 min at 25° C. (steady-state conditions) with […] ^125I-His^9-ghrelin (Amersham) in the presence or absence of competing compounds (compounds of the invention).
Nonspecific binding was defined using an excess (10^−6 M) of ghrelin. The binding reaction was stopped by addition of 4 mL of ice-cold HB followed by rapid filtration over Whatman GP/C filters presoaked with 0.5% polyethyleneimine to prevent excessive binding of radioligand to the filters. Filters were rinsed three times with 3 mL of icecold wash buffer [50 mM Tris (pH 7.3), 10 mM MgCl2, 2.5 mM EDTA, and 0.015% (w/v) X-100 Triton], and the radioactivity bound to membranes was measured in a gammacounter (Kontron Analytical Gamma Matic, Automatic gamma counting system).
The concentration of test compounds required to inhibit radiolabelled ghrelin binding by 50% (IC50) was determined by fitting competitive binding curves using non-linear regression (PRISM 3.0, Graph Pad San Diego, USA).
In the following table 2 results obtained for selected compounds of the invention are presented in comparison to an example of the prior art. IC50 values given are the mean of at least two independent experiments performed in triplicates.

human GHS-R 1a, sequence (Q92847 whole entry): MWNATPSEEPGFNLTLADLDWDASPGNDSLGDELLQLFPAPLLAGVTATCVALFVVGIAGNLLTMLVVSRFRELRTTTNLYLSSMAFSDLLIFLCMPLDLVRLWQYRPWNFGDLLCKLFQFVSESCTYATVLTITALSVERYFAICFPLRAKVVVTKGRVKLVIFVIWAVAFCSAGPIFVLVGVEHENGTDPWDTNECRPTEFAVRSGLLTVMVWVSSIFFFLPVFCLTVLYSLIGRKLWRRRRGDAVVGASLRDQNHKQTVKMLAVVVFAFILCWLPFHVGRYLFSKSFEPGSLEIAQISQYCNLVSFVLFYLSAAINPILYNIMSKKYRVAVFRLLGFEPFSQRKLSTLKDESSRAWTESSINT

Row | SMILES | IC50 [nM]
1 | COc1ccc(Cn2c(CCc3c[nH]c4ccccc34)nnc2[C@@H](Cc2ccc3ccccc3c2)NC(=O)c2ccccn2)cc1 [Compound 58, N-((R)-1-(5-(2-(1H-indol-3-yl)ethyl)-4-(4-methoxybenzyl)-4H-1,2,4-triazol-3-yl)-2-(naphthalen-2-yl)ethyl)picolinamide] | 1
2 | O=C(Cc1ccccn1)N[C@H](Cc1c[nH]c2ccccc12)c1nnc(CCc2c[nH]c3ccccc23)n1Cc1ccc(Cl)c(Cl)c1 [Compound 52, N-((R)-1-(5-(2-(1H-indol-3-yl)ethyl)-4-(3,4-dichlorobenzyl)-4H-1,2,4-triazol-3-yl)-2-(1H-indol-3-yl)ethyl)-2-(pyridin-2-yl)acetamide] | 48
3 | O=C(N[C@H](Cc1c[nH]c2ccccc12)c1nnc(CCc2ccccc2)n1Cc1ccc(-c2ccccc2)cc1)C1CCNCC1 [Compound 74, N-((R)-1-(4-(4-phenylbenzyl)-5-phenethyl-4H-1,2,4-triazol-3-yl)-2-(1H-indol-3-yl)ethyl)piperidine-4-carboxamide] | 95
4 | COc1ccc(Cn2c(CCc3ccccc3)nnc2[C@@H](Cc2ccc3ccccc3c2)NC(=O)C2CCCN2)cc1 (stereo partly drawn) [Compound 59, N-((R)-1-(4-(4-methoxybenzyl)-5-phenethyl-4H-1,2,4-triazol-3-yl)-2-(naphthalen-2-yl)ethyl)pyrrolidine-2-carboxamide] | 27.8
5 | O=C(N[C@H](Cc1c[nH]c2ccccc12)c1nnc(CCc2ccccc2)n1CCc1ccccc1)c1cnccn1 [Compound 66, N-((R)-2-(1H-indol-3-yl)-1-(4,5-diphenethyl-4H-1,2,4-triazol-3-yl)ethyl)pyrazine-2-carboxamide] | 825
6 | O=C(N[C@H](Cc1c[nH]c2ccccc12)c1nnc(CCc2ccccc2)n1CCc1ccccc1)C1CCCCC1 [Compound 62, N-((R)-2-(1H-indol-3-yl)-1-(4,5-diphenethyl-4H-1,2,4-triazol-3-yl)ethyl)cyclohexane-carboxamide] | 707
7 | O=C(N[C@H](Cc1c[nH]c2ccccc12)c1nnc(CCc2ccccc2)n1CCc1ccccc1)c1ccccn1 [Compound 64, N-((R)-2-(1H-indol-3-yl)-1-(4,5-diphenethyl-4H-1,2,4-triazol-3-yl)ethyl)picolinamide] | 198
8 | O=C(Cc1ccccn1)N[C@H](Cc1c[nH]c2ccccc12)c1nnc(CCCc2c[nH]c3ccccc23)n1Cc1cccc2ccccc12 [Compound 40, N-((R)-1-(5-(3-(1H-indol-3-yl)propyl)-4-((naphthalen-1-yl)methyl)-4H-1,2,4-triazol-3-yl)-2-(1H-indol-3-yl)ethyl)-2-(pyridin-2-yl)acetamide] | 20.9
9 | O=C(N[C@H](Cc1c[nH]c2ccccc12)c1nnc(CCCc2c[nH]c3ccccc23)n1Cc1cccc2ccccc12)C1CCOCC1 [Compound 46, N-((R)-1-(5-(3-(1H-indol-3-yl)propyl)-4-((naphthalen-1-yl)methyl)-4H-1,2,4-triazol-3-yl)-2-(1H-indol-3-yl)ethyl)-tetrahydro-2H-pyran-4-carboxamide] | 143
10 | O=C(N[C@H](Cc1c[nH]c2ccccc12)c1nnc(CCc2ccccc2)n1CCc1ccccc1)C1CCNCC1 [Compound 71, N-((R)-2-(1H-indol-3-yl)-1-(4,5-diphenethyl-4H-1,2,4-triazol-3-yl)ethyl)piperidine-4-carboxamide] | 92
11 | COc1ccc(Cn2c(CCc3ccccc3)nnc2[C@@H](Cc2cccc3ccccc23)NC(=O)C2CCCN2)cc1 (stereo partly drawn) [Compound 80, N-((R)-1-(4-(4-methoxybenzyl)-5-phenethyl-4H-1,2,4-triazol-3-yl)-2-(naphthalen-1-yl)ethyl)pyrrolidine-2-carboxamide] | 18.8
12 | COc1ccc(Cn2c(CCc3ccccc3)nnc2[C@@H](Cc2cccc3ccccc23)NC(=O)C2CCNCC2)cc1 [Compound 78, N-((R)-1-(4-(4-methoxybenzyl)-5-phenethyl-4H-1,2,4-triazol-3-yl)-2-(naphthalen-1-yl)ethyl)piperidine-4-carboxamide] | 2.2
13 | NCCCC(=O)N[C@H](Cc1c[nH]c2ccccc12)c1nnc(CCc2c[nH]c3ccccc23)n1Cc1cccc2ccccc12 [Compound 67, N-((R)-1-(5-(2-(1H-indol-3-yl)ethyl)-4-((naphthalen-1-yl)methyl)-4H-1,2,4-triazol-3-yl)-2-(1H-indol-3-yl)ethyl)-4-aminobutanamide] | 0.27
14 | O=C(N[C@H](Cc1c[nH]c2ccccc12)c1nnc(CCc2ccccc2)n1CCc1ccccc1)c1ccccc1 [Compound 63, N-((R)-2-(1H-indol-3-yl)-1-(4,5-diphenethyl-4H-1,2,4-triazol-3-yl)ethyl)benzamide] | 535
15 | O=C(N[C@H](Cc1c[nH]c2ccccc12)c1nnc(Cc2ccccc2)n1Cc1ccc(Cl)c(Cl)c1)c1cnccn1 [Compound 38, N-((R)-1-(4-(3,4-dichlorobenzyl)-5-benzyl-4H-1,2,4-triazol-3-yl)-2-(1H-indol-3-yl)ethyl)pyrazine-2-carboxamide] | 430
16 | COc1ccc(Cn2c(CCc3ccccc3)nnc2[C@@H](Cc2ccc3ccccc3c2)NC(=O)c2ccccn2)cc1 [Compound 57, N-((R)-1-(4-(4-methoxybenzyl)-5-phenethyl-4H-1,2,4-triazol-3-yl)-2-(naphthalen-2-yl)ethyl)picolinamide] | 0.7
17 | COc1ccc(Cn2c(CCc3ccccc3)nnc2[C@@H](Cc2ccc3ccccc3c2)NC(=O)C(C)(C)N)cc1 [Compound 55, N-((R)-1-(4-(4-methoxybenzyl)-5-phenethyl-4H-1,2,4-triazol-3-yl)-2-(naphthalen-2-yl)ethyl)-2-amino-2-methylpropanamide] | 13.7
18 | O=C(N[C@H](Cc1c[nH]c2ccccc12)c1nnc(CCCc2c[nH]c3ccccc23)n1Cc1cccc2ccccc12)c1ccccn1 [Compound 45, N-((R)-1-(5-(3-(1H-indol-3-yl)propyl)-4-((naphthalen-1-yl)methyl)-4H-1,2,4-triazol-3-yl)-2-(1H-indol-3-yl)ethyl)picolinamide] | 29
19 | CC(C)(N)C(=O)N[C@H](Cc1c[nH]c2ccccc12)c1nnc(CCc2ccccc2)n1Cc1ccc(-c2ccccc2)cc1 [Compound 73, 2-amino-N-((R)-1-(4-(4-phenylbenzyl)-5-phenethyl-4H-1,2,4-triazol-3-yl)-2-(1H-indol-3-yl)ethyl)-2-methylpropanamide] | 150
20 | NCCCC(=O)N[C@H](Cc1c[nH]c2ccccc12)c1nnc(CCc2ccccc2)n1Cc1cccc2ccccc12 [Compound 68, N-((R)-2-(1H-indol-3-yl)-1-(4-((naphthalen-1-yl)methyl)-5-phenethyl-4H-1,2,4-triazol-3-yl)ethyl)-4-aminobutanamide] | 182
21 | O=C(N[C@H](Cc1c[nH]c2ccccc12)c1nnc(CCCc2c[nH]c3ccccc23)n1Cc1cccc2ccccc12)c1cnccn1 [Compound 51, N-((R)-1-(5-(3-(1H-indol-3-yl)propyl)-4-((naphthalen-1-yl)methyl)-4H-1,2,4-triazol-3-yl)-2-(1H-indol-3-yl)ethyl)pyrazine-2-carboxamide] | 107
22 | COc1ccc(Cn2c(CCc3ccccc3)nnc2[C@@H](Cc2cccc3ccccc23)NC(=O)c2ccccn2)cc1 [Compound 79, N-((R)-1-(4-(4-methoxybenzyl)-5-phenethyl-4H-1,2,4-triazol-3-yl)-2-(naphthalen-1-yl)ethyl)picolinamide] | 1.45
23 | NCCCC(=O)N[C@H](Cc1c[nH]c2ccccc12)c1nnc(CCCc2c[nH]c3ccccc23)n1Cc1cccc2ccccc12 [Compound 69, N-((R)-1-(5-(3-(1H-indol-3-yl)propyl)-4-((naphthalen-1-yl)methyl)-4H-1,2,4-triazol-3-yl)-2-(1H-indol-3-yl)ethyl)-4-aminobutanamide] | 126
24 | O=C(N[C@H](Cc1c[nH]c2ccccc12)c1nnc(CCc2c[nH]c3ccccc23)n1Cc1ccc(Cl)c(Cl)c1)C1CCCN1 (stereo partly drawn) [Compound 53, N-((R)-1-(5-(2-(1H-indol-3-yl)ethyl)-4-(3,4-dichlorobenzyl)-4H-1,2,4-triazol-3-yl)-2-(1H-indol-3-yl)ethyl)pyrrolidine-2-carboxamide] | 158
25 | COc1ccc(Cn2c(CCc3ccccc3)nnc2[C@@H](Cc2cccc3ccccc23)NC(=O)C(C)(C)N)cc1 [Compound 77, N-((R)-1-(4-(4-methoxybenzyl)-5-phenethyl-4H-1,2,4-triazol-3-yl)-2-(naphthalen-1-yl)ethyl)-2-amino-2-methylpropanamide] | 12.3
26 | O=C(Cc1ccccn1)N[C@H](Cc1c[nH]c2ccccc12)c1nnc(CCc2ccccc2)n1Cc1cccc2ccccc12 [Compound 50, N-((R)-2-(1H-indol-3-yl)-1-(4-((naphthalen-1-yl)methyl)-5-phenethyl-4H-1,2,4-triazol-3-yl)ethyl)-2-(pyridin-2-yl)acetamide] | 107
